One may read the IC50 as the concentration that inhibits the measured activity by half. A lower IC50 goes with higher potency.

Common to all, as to format: cell-based
For assay [1], the target named is T1, AR protein (Homo sapiens, UniProt P10275).
T1 construct: host or cells: VCaP
T1 sequence (P10275 1-920): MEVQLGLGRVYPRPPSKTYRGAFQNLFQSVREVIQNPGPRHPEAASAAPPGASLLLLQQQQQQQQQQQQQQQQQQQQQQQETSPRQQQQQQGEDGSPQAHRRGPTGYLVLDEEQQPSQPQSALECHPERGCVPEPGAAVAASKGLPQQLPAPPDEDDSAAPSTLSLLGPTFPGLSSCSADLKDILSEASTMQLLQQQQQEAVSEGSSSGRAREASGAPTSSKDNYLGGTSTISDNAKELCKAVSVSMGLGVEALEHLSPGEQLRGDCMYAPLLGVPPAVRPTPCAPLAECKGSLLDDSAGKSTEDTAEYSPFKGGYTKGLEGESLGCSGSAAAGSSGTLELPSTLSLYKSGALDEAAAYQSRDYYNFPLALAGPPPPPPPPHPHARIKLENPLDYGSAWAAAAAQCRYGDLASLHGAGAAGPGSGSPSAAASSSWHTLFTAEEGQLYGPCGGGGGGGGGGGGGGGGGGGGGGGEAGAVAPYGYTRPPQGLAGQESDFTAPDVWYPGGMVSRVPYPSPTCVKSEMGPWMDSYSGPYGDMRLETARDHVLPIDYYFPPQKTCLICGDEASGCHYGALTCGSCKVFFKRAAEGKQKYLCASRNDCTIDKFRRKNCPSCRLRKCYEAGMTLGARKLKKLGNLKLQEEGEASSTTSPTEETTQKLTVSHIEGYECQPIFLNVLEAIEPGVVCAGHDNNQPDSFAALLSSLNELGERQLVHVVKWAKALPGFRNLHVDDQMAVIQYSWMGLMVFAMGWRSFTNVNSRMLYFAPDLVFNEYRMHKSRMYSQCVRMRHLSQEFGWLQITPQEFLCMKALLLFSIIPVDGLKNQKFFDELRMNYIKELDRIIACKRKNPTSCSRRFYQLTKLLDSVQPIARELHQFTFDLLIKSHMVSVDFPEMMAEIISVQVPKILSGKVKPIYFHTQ
Description: AR protein degradation in VCaP cells (Western blot). As to conditions: 8h. As for the experimental part: The degradation activity of the compounds disclosed in the present invention on AR protein in VCaP cells (cell source: ATCC)
The AR-positive human prostate cancer cells VCaP cultured in DMEM (GiBco catalog number 11995-065) containing 10% FBS (Hyclone catalog number SH30406.05) was inoculated in a six-well microplate (Thermo catalog number 140675) at a concentration of 3×10^5 cells/ well. After being cultured overnight in a carbon dioxide incubator (ESCO), the prepared compound of the present invention and the positive control sample ARV-766 (Annaiji) solution of different concentrations were added at a volume of 1 µL/well to make the final concentrations of the compound and the positive control sample reach 5nM and 0.5nM, respectively. At the same time, the corresponding solvent control was set and cultured for 8h. After 8h of culture, the culture medium was removed, and the cells were washed with PBS. RIPA lysis buffer containing 1% Protease Inhibitor Cocktail was added. After lysis and centrifugation, a total protein extract was obtained, and the protein concentration in the extract was detected by BCA method. Protein electrophoresis was performed using SDS-PAGE, and then the protein was transferred to a PVDF (Millipore Sigma catalog number PSRP010R5) membrane at a constant voltage of 100V for 60min. The PVDF membrane was placed in a 5% milk powder 1×TBST solution and blocked at room temperature for 1h. The primary antibody solution (Anti-Androgen receptor, Cell Signaling Technology catalog number: 5153S; 1:2000 dilution) was prepared and was incubated at 4°C overnight. The primary antibody solution was discarded and the PVDF membrane was washed with 1×TBST for 5 minutes each time, for three times. The secondary antibody solution (Thermo catalog number SA5-35571; 1:7500 dilution) was prepared and was incubated at room temperature for 1 hour. The secondary antibody solution was discarded and the PVDF membrane was washed with 1×TBST for 5 minutes each time, for three times. A dual-color infrared laser imaging system (Licor catalog number Odyssey CLX) was used for Western membrane imaging. Image Studio software was used to analyze the grayscale of the bands. GAPDH protein bands were also detected for each sample as the reference. The AR protein degradation rate of the compound and the positive control sample was calculated based on the grayscale of the protein bands.
Table 7 Degradation rate of AR protein in VCaP cells by the compounds disclosed in the present invention
In general terms: A western blot detects proteins with antibodies after separation by electrophoresis.

Assay [2] addresses T2, AR protein (Homo sapiens, UniProt P10275, T878A).
T2 construct: host or cells: LNCaP FGC
T2 sequence (P10275 1-920 T878A): T1 sequence (P10275 1-920) with T878A
Briefly: AR protein degradation in LNCaP cells (Western blot). The following applies: 8 hours. As for the experimental part: At the same time, the corresponding solvent control was set and cultured for 8 hours. After 8 hours of culture, the culture medium was removed, the cells were washed with PBS, and RIPA lysis buffer containing 1% Protease Inhibitor Cocktail was added. After lysis and centrifugation, the total protein extract was obtained, and the protein concentration in the extract was detected by BCA method. Protein electrophoresis was performed using SDS-PAGE, and then the protein was transferred to a PVDF (Millipore Sigma catalog number PSRP010R5) membrane at a constant voltage of 100V for 60 minutes. The PVDF membrane was placed in a 5% milk powder 1 ×TBST solution and blocked at room temperature for 1 hour. […] The primary antibody solution was discarded and the PVDF membrane was washed with 1×TBST for 5 minutes each time, for three times. […] The secondary antibody solution was discarded and the PVDF membrane was washed with 1 ×TBST for 5 minutes each time, for three times. A dual-color infrared laser imaging system (Licor catalog number Odyssey CLX) was used for Western membrane imaging. The Image Studio software was used to analyze the grayscale of the bands. GAPDH protein bands were also detected for each sample as the reference. The AR protein degradation rate of the compound and the positive control sample was calculated based on the grayscale of the protein bands.

Assay [3] relates to LNCaP cells. Briefly: Inhibition of LNCaP cell proliferation (WST-8). As to conditions: Homo sapiens, LNCaP FGC cells, 96 hours. As for the experimental part:
The inhibitory activity of compounds disclosed in the present invention on LNCaP cell proliferation
The cells were cultured overnight in a 37°C, 5% CO2 cell incubator. […] The final concentration of the compound was 9 concentration points of 5-fold serial dilution starting from 10 µM. […] The cells were cultured in a cell culture incubator at 37°C and 5% CO2 for 96 hours. On the sixth day, the 96-well cell culture plate was removed, and 1/10 volume of WST-8 (Beytime, C0040) reagent was added to each well. The absorbance at 450 nm was detected using a microplate reader (TECAN, F50).

Assay [4] concerns VCaP cells. Description: Inhibition of VCaP cell proliferation (WST-8). As to conditions: Homo sapiens, 168 hours. As for the experimental part:
On the first day of the experiment, VCaP cells were seeded at a density of 15,000 cells/well in a 96-well plate using DMEM medium containing 10% fetal bovine serum, with 100µL of cell suspension per well, and cultured overnight in a cell incubator at 37°C and 5% CO2. On the second day, 100µL of the compound of the present invention and the positive control ARV-110 (source: Anaiji) prepared in culture medium at different concentrations were added to each well. The final concentration of the compound was 9 concentration points of 5-fold serial dilution starting from 10 µM. […] On the ninth day, the 96-well cell culture plate was removed and 1/10 volume of WST-8 (Beytime, C0040) reagent was added to each well. The absorbance at 450nm was measured using a microplate reader (TECAN, F50).
In general terms: Tetrazolium dyes change colour on reduction, which living cells bring about.

Molecules are shown by their SMILES. Residue numbers refer to the chain shown, from its start.

In assay [1] (0.5 nM), `COc1cc(O[C@H]2C(C)(C)[C@H](NC(=O)c3ccc(N4CCC(CN5CCC6(CC5)COc5c6ccc6c5n(C)c(=O)n6C5CCC(=O)NC5=O)CC4)cc3)C2(C)C)ccc1C#N` (stereo partly shown) [A-P-28] gave an AR protein degradation rate at fixed concentration (%) at 0.0005 µM of 80%. The molecule also gave an AR protein degradation rate at fixed concentration (%) at 0.005 µM in assay [1] (5 nM) of 80%. Moreover, in assay [2] (10 nM), the percent AR protein degradation at a fixed concentration at 0.01 µM worked out at 64%. Also, the percent AR protein degradation at a fixed concentration at 0.1 µM in assay [2] (100 nM) worked out at 32%. The same molecule had an IC50 in assay [3] of 20.7 µM.
As for `C[C@H]1CC2(CCN(c3ccc(N4CCC(CN5CCN6c7cc(F)c(C(=O)N[C@H]8CCC(=O)NC8=O)cc7OC[C@H]6C5)CC4)cc3)CC2)CN1c1ccc(C#N)c(Cl)c1` [A-P-59, (R)-3-((1-(4-((S)-2-(3-chloro-4-cyanophenyl)-3-methyl-2,8-diazaspiro[4.5]decan-8-yl)phenyl)piperidin-4-yl)methyl)-N-((S)-2,6-dioxopiperidin-3-yl)-9-fluoro-1,2,3,4,4a,5-hexahydrobenzo[b]pyrazi no[1,2-d][1,4]oxazine-8-carboxamide], the IC50 in assay [4] came to 0.16 µM; in assay [3], 0.15 µM.
The like results for `C[C@H]1CC2(CCN(c3ccc(C(=O)N4CCC(CN5CCN6c7cc(F)c(C(=O)N[C@H]8CCC(=O)NC8=O)cc7OC[C@H]6C5)CC4)cc3)CC2)CN1c1ccc(C#N)c(Cl)c1` [A-P-60] were, in that order, 0.94 µM and 0.69 µM.
The matching figures for `COc1cc2c(cc1C(=O)N[C@H]1CCC(=O)NC1=O)OC[C@H]1CN(CC3CCN(c4ccc(N5CCC6(CC5)C[C@H](C)N(c5ccc(C#N)c(Cl)c5)C6)cc4)CC3)CCN21` [A-P-75]: 0.042 µM and 0.35 µM.
In the case of `COc1cc2c(cc1C(=O)N[C@H]1CCC(=O)NC1=O)OC[C@H]1CN(CC3CCN(C(=O)c4ccc(N5CCC6(CC5)C[C@H](C)N(c5ccc(C#N)c(Cl)c5)C6)cc4)CC3)CCN21` [A-P-76], the figures for the IC50 in assay [4] and in assay [3] were 0.078 µM and 2.84 µM, respectively.
In the case of `C[C@H]1CC2(CCN(c3ccc(C(=O)N4CCC(CN5CCC6(CC5)COc5cc(NC7CCC(=O)NC7=O)ccc56)CC4)cc3)CC2)CN1c1ccc(C#N)c(Cl)c1` (stereo partly shown) [A-P-87, 2-chloro-4-((3 S)-8-(4-(4-((6-((2,6-dioxopiperidin-3-yl)amino)-2H-spiro[benzofuran-3,4'-piperidin]-1'-yl)methyl)piperidin-1-carbonyl)phenyl)-3-methyl-2,8-diazaspiro[4.5]decan-2-yl)benzonitrile], the IC50 in assay [4] is 0.0014 µM; in assay [3], 0.14 µM.
Take `C[C@H]1CC2(CCN(c3ccc(C(=O)N4CCC(CN5CCC6(CC5)Cc5ccc(NC7CCC(=O)NC7=O)cc5O6)CC4)cc3)CC2)CN1c1ccc(C#N)c(Cl)c1` (stereo partly drawn) [A-P-94, 2-chloro-4-((3S)-8-(4-(4-((6-((2,6-dioxopiperidin-3-yl)amino)-3H-spiro[benzofuran-2,4'-piperidin]-1'-yl)methyl)piperidin-1-carbonyl)phenyl)-3-methyl-2,8-diazaspiro[4.5]decan-2-yl)benzonitrile]: the IC50 in assay [4] turned out to be 0.0015 µM; in assay [3], 0.39 µM.
Turning to `C[C@H]1CC2(CCN(c3ccc(C(=O)N4CCC(CN5CCC6(CC5)COc5ccc(NC7CCC(=O)NC7=O)cc56)CC4)cc3)CC2)CN1c1ccc(C#N)c(Cl)c1` (stereo partly shown) [A-P-98, 2-chloro-4-((3 S)-8-(4-(4-((5-((2,6-dioxopiperidin-3-yl)amino)-2H-spiro[benzofuran-3,4'-piperidin]-1'-yl)methyl)piperidin-1-carbonyl)phenyl)-3-methyl-2,8-diazaspiro[4.5]decan-2-yl)benzonitrile], the IC50 in assay [4] came out at 0.006 µM; in assay [3] it was 0.43 µM.

For the origin of these results see patent EP4722219A1 (Gan & Lee Pharmaceuticals Co., Ltd., priority 2023, dated 2024).
